Results as given in patent US9770026B2, “Substituted pyrimidine compound and uses thereof” (Shenyang Sinochem Agrochemicals R&D Co., Ltd., priority 2012, dated 2017).

Columns and labels:
corn rust = test: protectant activity in vivo against corn rust; settings: for pest or weed control at 6.25 µg/mL: read-out: control effect against corn rust (%), 6.25 mg/L; for pest or weed control at 25 µg/mL: read-out: control effect against corn rust (%), 25 mg/L; for pest or weed control at 100 µg/mL: read-out: control effect against corn rust (%), 100 mg/L; for pest or weed control at 400 µg/mL: read-out: control effect against corn rust (%), 400 mg/L; for pest or weed control at 25 ppm: read-out: protectant activity against corn rust in vivo, 25 ppm; for pest or weed control at 400 ppm: read-out: protectant activity against corn rust in vivo, 400 ppm
armyworm = test: bioactivity test against armyworm, airbrush spray; assay type: in vivo
rice blast = test: microbe, parasite or virus in culture; assay type: cell-based; settings: Pyricularia oryzae; for inhibition at 8.3 ppm: read-out: inhibition rate against rice blast, 8.3 ppm, in vitro; for inhibition at 25 ppm: read-out: inhibition rate against rice blast, 25 ppm, in vitro
Diamond back moth = test: insecticidal activity against diamond back moth, airbrush spray; assay type: in vivo; settings: 600 ppm, mortality after 72 hrs
In short: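 Airbrush leaf-disc spray test: both faces of 2 cm cabbage discs received 0.5 ml of test solution at 0.7 kg/cm^2. Solutions were made in acetone:methanol (1:1) and brought to concentration with 0.1% Tween 80 in water. Ten second-instar larvae per disc, triplicates, were held at 25° C and 60˜70% R.H., with mortality recorded at 72 hrs.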

carmine spider mite = test: bioactivity test against carmine spider mite, airbrush spray; assay type: in vivo
In short: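 Broadbean seedlings infested with adult mites were sprayed with compound (acetone/methanol stock diluted in 0.1% Tween 80 water) by airbrush at 0.7 kg/cm^2, 0.5 ml. Three replicates were run. Mortality was scored after 72 hrs.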

wheat powdery mildew = test: protectant activity in vivo against wheat powdery mildew; settings: for pest or weed control at 400 ppm: read-out: protectant activity against wheat powdery mildew in vivo, 400 ppm
[1] = test system: Green peach aphids (Myzus Persicae Sulzer); test: bioactivity test against green peach aphid, airbrush foliar spray; assay type: in vivo; settings: for Insecticidal activity against peach aphid (%): contrastive test
In short: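 Death rate was scored at 48 hrs, held at 25±1 C and 60±5% RH, following airbrush foliar spray (0.5 mL, 10 psi) onto cabbage leaf discs bearing about 15-30 aphids. Test solutions: compound dissolved in 1:1 acetone:methanol, brought to concentration with 0.1% tween 80 water.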

cucumber downy mildew = test: protectant activity in vivo against cucumber downy mildew; settings: for pest or weed control at 50 ppm: read-out: protectant activity against cucumber downy mildew in vivo, 50 ppm; for pest or weed control at 400 ppm: read-out: protectant activity against cucumber downy mildew in vivo, 400 ppm
[2] = Zea mays, 168 h, protectant activity
[3] = 100 ppm, mortality after 72 hrs
[4] = 600 ppm, mortality after 72 hrs
[5] = 10 ppm, death rate after 48 hrs
[6] = Myzus persicae, foliar, 48 h, 100 ppm, death rate after 48 hrs
[7] = Myzus persicae, foliar, 48 h, 600 ppm, death rate after 48 hrs
[8] = Tetranychus cinnabarinus, 72 h, 600 ppm, mortality after 72 hrs

Cc1c(Cl)c(NCCc2ccc(Oc3ccc(C(F)(F)F)cn3)cc2)nc[n+]1CC(=O)c1ccc(Cl)cc1 [CK49, reference compound]
0%: pest or weed control at 6.25 µg/mL (corn rust; [2]) | pest or weed control at 25 µg/mL (corn rust; [2]) | inhibition at 8.3 ppm (rice blast)
85%: pest or weed control at 400 µg/mL (corn rust; [2])
< 50%: inhibition at 25 ppm (rice blast)
30%: pest or weed control at 100 µg/mL (corn rust; [2])
17%: pest or weed control at 600 µg/mL (armyworm; 72 h, 600 mg/L, read-out: Insecticidal activity against armyworm (%))

Cc1ncnc(NCCc2ccc(Oc3ccc(C(F)(F)F)cn3)cc2)c1Cl [Compound I-22]
59%: Insecticidal activity against carmine spider mite (% ) (carmine spider mite; 5 mg/L)
20%: pest or weed control at 0.4 µg/mL (corn rust; Zea mays, 168 h, read-out: control effect against corn rust (%), 0.4 mg/L, protectant activity)
80 to 99%: inhibition at 8.3 ppm (rice blast)
74%: Insecticidal activity against carmine spider mite (% ) (carmine spider mite; 10 mg/L, contrastive test)
50%: pest or weed control at 1.6 µg/mL (corn rust; Zea mays, 168 h, read-out: control effect against corn rust (%), 1.6 mg/L, protectant activity)
85%: pest or weed control at 3.125 µg/mL (cucumber downy mildew; Cucumis sativus, 168 h, read-out: control effect against cucumber downy mildew (%), 3.125 mg/L, protectant activity)
100%: protectant activity against corn rust in vivo (corn rust; 6.25 ppm) | protectant activity against corn rust in vivo (corn rust; 100 ppm) | pest or weed control at 6.25 µg/mL (corn rust; [2]) | pest or weed control at 25 µg/mL (corn rust; [2]) | pest or weed control at 100 µg/mL (corn rust; [2]) | pest or weed control at 400 µg/mL (corn rust; [2]) | pest or weed control at 25 ppm (corn rust; Zea mays, 168 h) | pest or weed control at 400 ppm (corn rust; Zea mays, 168 h) | control (test results against diamond back moth) (Diamond back moth) | Insecticidal activity against carmine spider mite (% ) (carmine spider mite; 100 mg/L, contrastive test) | Insecticidal activity against carmine spider mite (% ) (carmine spider mite; 600 mg/L, contrastive test) | control against carmine spider mite (carmine spider mite; [3]) | control against carmine spider mite (carmine spider mite; [4]) | protectant activity against wheat powdery mildew in vivo (wheat powdery mildew; 6.25 ppm) | protectant activity against wheat powdery mildew in vivo (wheat powdery mildew; 100 ppm) | pest or weed control at 6.25 µg/mL (wheat powdery mildew; Triticum aestivum, 168 h, read-out: control effect against wheat powdery mildew (%), 6.25 mg/L, protectant activity) | pest or weed control at 25 µg/mL (wheat powdery mildew; Triticum aestivum, 168 h, read-out: control effect against wheat powdery mildew (%), 25 mg/L, protectant activity) | pest or weed control at 100 µg/mL (wheat powdery mildew; Triticum aestivum, 168 h, read-out: control effect against wheat powdery mildew (%), 100 mg/L, protectant activity) | pest or weed control at 400 µg/mL (wheat powdery mildew; Triticum aestivum, 168 h, read-out: control effect against wheat powdery mildew (%), 400 mg/L, protectant activity) | pest or weed control at 25 ppm (wheat powdery mildew; Triticum aestivum, 168 h, read-out: protectant activity against wheat powdery mildew in vivo, 25 ppm) | pest or weed control at 400 ppm (wheat powdery mildew; Triticum aestivum, 168 h) | Insecticidal activity against peach aphid (%) ([1]; 1.25 mg/L) | Insecticidal activity against peach aphid (%) ([1]; 2.5 mg/L) | Insecticidal activity against peach aphid (%) ([1]; 5 mg/L) | Insecticidal activity against peach aphid (%) ([1]; 10 mg/L) | Insecticidal activity against peach aphid (%) ([1]; 100 mg/L) | Insecticidal activity against peach aphid (%) ([1]; 600 mg/L) | control (test results against green peach aphid) [1, 5] | pest or weed control at 100 ppm [1, 6] | pest or weed control at 600 ppm [1, 7] | protectant activity against cucumber downy mildew in vivo (cucumber downy mildew; 100 ppm) | pest or weed control at 6.25 µg/mL (cucumber downy mildew; Cucumis sativus, 168 h, read-out: control effect against cucumber downy mildew (%), 6.25 mg/L, protectant activity) | pest or weed control at 12.5 µg/mL (cucumber downy mildew; Cucumis sativus, 168 h, read-out: control effect against cucumber downy mildew (%), 12.5 mg/L, protectant activity) | pest or weed control at 25 µg/mL (cucumber downy mildew; Cucumis sativus, 168 h, read-out: control effect against cucumber downy mildew (%), 25 mg/L, protectant activity) | pest or weed control at 50 µg/mL (cucumber downy mildew; Cucumis sativus, 168 h, read-out: control effect against cucumber downy mildew (%), 50 mg/L, protectant activity) | pest or weed control at 100 µg/mL (cucumber downy mildew; Cucumis sativus, 168 h, read-out: control effect against cucumber downy mildew (%), 100 mg/L, protectant activity) | pest or weed control at 400 µg/mL (cucumber downy mildew; Cucumis sativus, 168 h, read-out: control effect against cucumber downy mildew (%), 400 mg/L, protectant activity) | pest or weed control at 6.25 ppm (cucumber downy mildew; Cucumis sativus, 168 h, read-out: protectant activity against cucumber downy mildew in vivo, 6.25 ppm) | pest or weed control at 12.5 ppm (cucumber downy mildew; Cucumis sativus, 168 h, read-out: protectant activity against cucumber downy mildew in vivo, 12.5 ppm) | pest or weed control at 25 ppm (cucumber downy mildew; Cucumis sativus, 168 h, read-out: protectant activity against cucumber downy mildew in vivo, 25 ppm) | pest or weed control at 50 ppm (cucumber downy mildew; Cucumis sativus, 168 h) | pest or weed control at 400 ppm (cucumber downy mildew; Cucumis sativus, 168 h)
15%: pest or weed control at 1.6 µg/mL (wheat powdery mildew; Triticum aestivum, 168 h, read-out: control effect against wheat powdery mildew (%), 1.6 mg/L, protectant activity)

Cc1ncnc(NCCc2ccc(Oc3ncc(C(F)(F)Cl)cc3Cl)cc2)c1Cl [Compound I-483]
80 to 99%: pest or weed control at 100 ppm (carmine spider mite; Tetranychus cinnabarinus, 72 h, 100 ppm, mortality after 72 hrs) | pest or weed control at 100 ppm (wheat powdery mildew; Triticum aestivum, 168 h, read-out: protectant activity against wheat powdery mildew in vivo, 100 ppm) | pest or weed control at 400 ppm (wheat powdery mildew; Triticum aestivum, 168 h)
100%: pest or weed control at 400 ppm (corn rust; Zea mays, 168 h) | pest or weed control at 600 ppm (carmine spider mite; [8]) | inhibition at 0.1 ppm (rice blast; read-out: inhibition rate against rice blast, 0.1 ppm, in vitro) | inhibition at 0.3 ppm (rice blast; read-out: inhibition rate against rice blast, 0.3 ppm, in vitro) | inhibition at 0.9 ppm (rice blast; read-out: inhibition rate against rice blast, 0.9 ppm, in vitro) | inhibition at 2.8 ppm (rice blast; read-out: inhibition rate against rice blast, 2.8 ppm, in vitro) | inhibition at 8.3 ppm (rice blast) | inhibition at 25 ppm (rice blast) | pest or weed control at 100 ppm [1, 6] | pest or weed control at 600 ppm [1, 7] | pest or weed control at 400 ppm (cucumber downy mildew; Cucumis sativus, 168 h)

Cc1ncnc(NCCc2ccc(Oc3ccc(C(F)(F)F)cn3)cc2)c1Cl [Compound I-6763]
100%: protectant activity against corn rust in vivo (corn rust; 100 ppm) | protectant activity against corn rust in vivo (corn rust; 400 ppm) | control against carmine spider mite (carmine spider mite; [3]) | control against carmine spider mite (carmine spider mite; [4]) | protectant activity against wheat powdery mildew in vivo (wheat powdery mildew; 100 ppm) | protectant activity against wheat powdery mildew in vivo (wheat powdery mildew; 400 ppm) | control (test results against armyworm) (armyworm; 600 ppm, mortality after 72 h) | pest or weed control at 100 ppm (armyworm; 72 h, 100 ppm, mortality after 72 h) | inhibition at 25 ppm (rice blast) | control (test results against green peach aphid) [1, 5] | control (test results against green peach aphid) ([1]; 100 ppm, death rate after 48 hrs) | control (test results against green peach aphid) ([1]; 600 ppm, death rate after 48 hrs) | pest or weed control at 5 ppm ([1]; Myzus persicae, foliar, 48 h, 5 ppm, death rate after 48 hrs)

CCOC(=O)c1ccc(Oc2ccc(CCNc3nc(C)nc(CC)c3Cl)cc2)nc1 [Compound I-6796]
80 to 99%: pest or weed control at 6.25 ppm (corn rust; Zea mays, 168 h, read-out: protectant activity against corn rust in vivo, 6.25 ppm) | pest or weed control at 25 ppm (corn rust; Zea mays, 168 h) | pest or weed control at 600 ppm (carmine spider mite; [8]) | inhibition at 25 ppm (rice blast) | pest or weed control at 50 ppm (cucumber downy mildew; Cucumis sativus, 168 h) | pest or weed control at 100 ppm (cucumber downy mildew; Cucumis sativus, 168 h, read-out: protectant activity against cucumber downy mildew in vivo, 100 ppm)
100%: pest or weed control at 100 ppm (corn rust; Zea mays, 168 h, read-out: protectant activity against corn rust in vivo, 100 ppm) | pest or weed control at 400 ppm (corn rust; Zea mays, 168 h) | pest or weed control at 400 ppm (wheat powdery mildew; Triticum aestivum, 168 h) | pest or weed control at 10 ppm ([1]; Myzus persicae, foliar, 48 h, 10 ppm, death rate after 48 hrs) | pest or weed control at 100 ppm [1, 6] | pest or weed control at 600 ppm [1, 7] | pest or weed control at 400 ppm (cucumber downy mildew; Cucumis sativus, 168 h)
